# How the values were obtained:
# Fusarium graminearum = format: in vivo; settings: 500 ppm of active ingredient; preventive spray on wheat; evaluated 5 days after inoculation
# Botrytis cinerea [1] = assay: Botrytis cinerea in vitro cell test; format: cell-based; settings: 144 h, 20 ppm of active ingredient, liquid culture, 6 days incubation, read-out: efficacy (inhibition of fungal growth)
# Experimental: (§1) a-14. Botrytis cinerea In Vitro Cell Test [table] Fungicides were solubilized in DMSO and the solution used to prepare the required range of concentrations. The final concentration of DMSO used in the assay was ≤1%. A spore suspension of B. cinerea was prepared and diluted to the desired spore density. Fungicides were evaluated for their ability to inhibit spore germination and mycelium growth in liquid culture assay. The compounds were added in the desired concentration to the culture medium with spores. After 6 days incubation, fungi-toxicity of compounds was determined by spectrometric measurement of mycelium growth. Inhibition of fungal growth was determined by comparing the absorbance values in wells containing the fungicides with the absorbance in control wells without fungicides.
# Septoria tritici [2] = assay: Septoria tritici in vitro cell test; format: cell-based; settings: Zymoseptoria tritici, 168 h; 20 ppm of active ingredient; liquid culture; 7 days incubation; read-out: efficacy (inhibition of fungal growth)
# Experimental: as §1, with “a-15. Septoria tritici” for “a-14. Botrytis cinerea”, “S. tritici” for “B. cinerea”, “After 6 days incubation, fungi-toxicity of compounds was determined by spectrometric measurement of mycelium growth.” left out
# Sphaerotheca fuliginea = assay: In vivo preventive test on Sphaerotheca fuliginea (powdery mildew on cucurbits); settings: 500 ppm of active ingredient; preventive spray on gherkin; evaluated 8 days after inoculation
# Experimental: (§2) a-5. In Vivo Preventive Test on Sphaerotheca fuliginea (Powdery Mildew on Cucurbits) [table] The active ingredients were made soluble and homogenized in a mixture of Dimethyl sulfoxide/Acetone//Tween® 80 and then diluted in water to the desired concentration. The young plants of gherkin were treated by spraying the active ingredient prepared as described above. Control plants were treated only with an aqueous solution of Acetone/Dimethyl sulfoxide/Tween® 80. After 24 hours, the plants were contaminated by spraying the leaves with an aqueous suspension of Sphaerotheca fuliginea spores.
# Pyrenophora teres [3] = assay: Pyrenophora teres in vitro cell test; format: cell-based; settings: 144 h, 20 ppm of active ingredient, liquid culture, 6 days incubation, read-out: efficacy (inhibition of fungal growth)
# Experimental: as §1, with “a-12. Pyrenophora teres” for “a-14. Botrytis cinerea”, “P. teres” for “B. cinerea”
# [4] = test system: Colletotrichum lindemuthianum; assay: Colletotrichum lindemuthianum in vitro cell test; format: cell-based; settings: 144 h, 20 ppm of active ingredient, liquid culture, 6 days incubation, read-out: efficacy (inhibition of fungal growth)
# Experimental: as §1, with “a-11. Colletotrichum lindemuthianum In” for “a-14. Botrytis cinerea In”, “of C. lindemuthianum” for “of B. cinerea”, “inhibit spores” for “inhibit spore”
# Fusarium culmorum = Fusarium culmorum in vitro cell test; format: cell-based; settings: 96 h, 20 ppm of active ingredient, liquid culture, 4 days incubation, read-out: efficacy (inhibition of fungal growth)
# Experimental: a-8. Fusarium culmorum In Vitro Cell Test
# Fungicides were solubilized in DMSO and the solution used to prepare the required range of concentrations. The final concentration of DMSO used in the assay was ≤1%.
# A spore suspension of F. culmorum was prepared and diluted to the desired spore density.
# Fungicides were evaluated for their ability to inhibit spore germination and mycelium growth in liquid culture assay. The compounds were added in the desired concentration to the culture medium with spores. After 4 days incubation, fungi-toxicity of compounds was determined by spectrometric measurement of mycelium growth. Inhibition of fungal growth was determined by comparing the absorbance values in wells containing the fungicides with the absorbance in control wells without fungicides.
# Septoria tritici [5] = assay: In vivo preventive test on Septoria tritici (leaf spot on wheat); settings: 500 ppm of active ingredient; preventive spray on wheat; evaluated 17 to 19 days after inoculation
# Experimental: as §2, with “a-4.” for “a-5.”, “Septoria tritici (Leaf Spot” for “Sphaerotheca fuliginea (Powdery Mildew”, “Wheat)” for “Cucurbits)”, “wheat” for “gherkin”, “Septoria tritici” for “Sphaerotheca fuliginea”, “spores. The contaminated wheat plants were incubated for 72 hours at 17° C. and at 100% relative humidity and then for 14 to 16 days at 20° C. and at 90% relative humidity.” for “spores.”
# Botrytis cinerea [6] = assay: In vivo preventive test on Botrytis cinerea (grey mould); settings: 500 ppm of active ingredient; preventive spray on gherkin or cabbage; evaluated 4 to 5 days after inoculation
# Experimental: as §2, with “a-2.” for “a-5.”, “Botrytis cinerea (Grey Mould)” for “Sphaerotheca fuliginea (Powdery Mildew on Cucurbits)”, “gherkin or cabbage” for “gherkin”, “Botrytis cinerea” for “Sphaerotheca fuliginea”, “spores. The contaminated gherkin plants were incubated for 4 to 5 days at 17° C. and at 90% relative humidity. The contaminated cabbage plants were incubated for 4 to 5 days at 20° C. and at 100% relative humidity.” for “spores.”
# Fusarium virguliforme = Fusarium virguliforme in vitro cell test; format: cell-based; settings: 144 h, 20 ppm of active ingredient, liquid culture, 6 days incubation, read-out: efficacy (inhibition of fungal growth)
# Experimental: as §1, with “a-13. Fusarium virguliforme” for “a-14. Botrytis cinerea”, “F. virguliforme” for “B. cinerea”
# Ustilago avenae = Ustilago avenae in vitro cell test; format: cell-based; settings: 96 h, 20 ppm of active ingredient, liquid culture, 4 days of incubation, read-out: efficacy (inhibition of fungal growth)
# Experimental: a-10. Ustilago avenae In Vitro Cell Test [table] Fungicides were solubilized in DMSO and the solution used to prepare the required range of concentrations. The final concentration of DMSO used in the assay was ≤1%. Inoculum was prepared from a pre-culture of U. avenae grown in liquid medium and diluted to the desired optical density (OD). Fungicides were evaluated for their ability to inhibit mycelium growth in liquid culture assay. The compounds were added in the desired concentrations to culture medium containing the spore suspension. After 4 days of incubation, the fungicidal efficacy of compounds was determined by spectrometric measurement of mycelium growth. Inhibition of fungal growth was determined by comparing the absorbance values in wells containing the fungicides with the absorbance in control wells without fungicides.
# Alternaria alternata = Alternaria alternata in vitro cell test; format: cell-based; settings: 120 h, 20 ppm of active ingredient, liquid culture, 5 days incubation, read-out: efficacy (inhibition of fungal growth)
# Experimental: as §1, with “a-7. Alternaria alternata” for “a-14. Botrytis cinerea”, “A. alternata” for “B. cinerea”, “5” for “6”
# [7] = test system: Colletotrichum lindemuthianum; assay: In vivo preventive test on Colletotrichum lindemuthianum (leaf spot on bean); settings: 500 ppm of active ingredient; preventive spray on bean; evaluated 7 days after inoculation
# Experimental: as §2, with “a-6.” for “a-5.”, “Colletotrichum lindemuthianum (Leaf Spot” for “Sphaerotheca fuliginea (Powdery Mildew”, “Bean)” for “Cucurbits)”, “bean” for “gherkin”, “Colletotrichum lindemuthianum” for “Sphaerotheca fuliginea”, “spores. The contaminated bean plants were incubated for 24 hours at 20° C. and at 100% relative humidity and then for 6 days at 20° C. and at 90% relative humidity.” for “spores.”
# Alternaria brassicae = assay: In vivo preventive test on Alternaria brassicae (leaf spot on radish or cabbage); settings: 500 ppm of active ingredient; preventive spray on radish or cabbage; evaluated 3 to 4 days after inoculation
# Experimental: as §2, with “a-1.” for “a-5.”, “Alternaria brassicae (Leaf Spot” for “Sphaerotheca fuliginea (Powdery Mildew”, “Radish or Cabbage)” for “Cucurbits)”, “radish or cabbage” for “gherkin”, “Alternaria brassicae” for “Sphaerotheca fuliginea”, “spores. The contaminated radish or cabbage plants were incubated for 3 to 4 days at 20° C. and at 100% relative humidity.” for “spores.”
# Pyrenophora teres [8] = assay: In vivo preventive test on Pyrenophora teres (net blotch on barley); settings: 500 ppm of active ingredient; preventive spray on barley; evaluated 10 days after inoculation
# Experimental: as §2, with “a-3.” for “a-5.”, “Pyrenophora teres (Net Blotch” for “Sphaerotheca fuliginea (Powdery Mildew”, “Barley)” for “Cucurbits)”, “barley” for “gherkin”, “Pyrenophora teres” for “Sphaerotheca fuliginea”
# Pyricularia Oryzae = assay: microbe, parasite or virus in culture; format: cell-based; settings: 120 h, read-out: efficacy (inhibition of fungal growth)
smiles,measurement,setting,value
"Cc1ccc(C[C@H]2CON=C(c3cc(C)nnc3Oc3cccc(Cl)c3F)N2)c(Cl)c1 [compound (I), (5S)-3-[3-(3-chloro-2-fluorophenoxy)-6-methylpyridazin-4-yl]-5-(2-chloro-4-methylbenzyl)-5,6-dihydro-4H-1,2,4-oxadiazine]",efficacy,Fusarium graminearum,at least 70%
same,inhibition at 20 ppm,Botrytis cinerea [1],≥ 70%
same,inhibition at 20 ppm,Septoria tritici [2],≥ 70%
same,efficacy,Sphaerotheca fuliginea,at least 70%
same,inhibition at 20 ppm,Pyrenophora teres [3],≥ 70%
same,inhibition at 20 ppm,[4],≥ 70%
same,inhibition at 20 ppm,Fusarium culmorum,≥ 70%
same,efficacy,Septoria tritici [5],at least 70%
same,efficacy,Botrytis cinerea [6],at least 70%
same,inhibition at 20 ppm,Fusarium virguliforme,≥ 70%
same,inhibition at 20 ppm,Ustilago avenae,≥ 70%
same,inhibition at 20 ppm,Alternaria alternata,≥ 70%
same,efficacy,[7],at least 70%
same,efficacy,Alternaria brassicae,at least 70%
same,efficacy,Pyrenophora teres [8],at least 70%
same,inhibition at 20 ppm,Pyricularia Oryzae,≥ 70%
